Data on three molecules can be found in patent US7271288B2, “Aromatic compounds” (Kyushu University, National University Corporation, priority 2002, dated 2007).

One data set in a line: Gelation test. Also on record: key to gelation ability: I = insoluble; S = soluble; P = precipitate; G = gel; pG = partial gel. Type of data set: physicochemical. The conditions noted are these: for gelation ability: 10 mM, 30 minutes at room temperature. The method, then:
To a septum-capped test tube (i.d. 5 mm) were added compounds 1 or 2 and a solvent (100 μl) so that the concentration of the resultant solution was 10 mM and the solution was sonicated and heated with a heat gun until the solid was dissolved. After standing for 30 minutes at room temperature, the sample was turned upside down and judged visually. […] The samples with no observed gel formation were subjected to standing at a lower temperature for further judgment.

Data set [1] is described as follows: Solubility observed when preparing samples for fluorescence measurement. Type of data set: physicochemical. The method, then:
Gels were prepared from compounds 1 and 2 with cyclohexane (hereinafter referred to as cyclohexane gel(s)). The concentration of compound 1 or 2 in cyclohexane was adjusted to 5 mM. Chloroform solutions of compounds 1, 2 and 3 (5×10^−5 M) were also prepared. The fluorescence spectroscopic measurement was carried out for each gel. The excitation wavelength λex for the measurements was 340 nm.
As both compounds 1 and 2 were soluble in hot cyclohexane, solid samples were prepared by dissolving the compounds in cyclohexane followed by removing the solvent with a rotary evaporator at room temperature. Each of the solid samples thus prepared was then subjected to fluorescence spectroscopic measurement. As shown in FIG. 8 and FIG. 9, the difference in the spectra reflecting the difference in the gel was also observed in the solid state. Therefore, it was confirmed that the assembly structure of the gel is maintained even in the solid state.

The structures appear in SMILES notation.

In the case of `CCCCCCCCCCCCNC(=O)COc1cc2c3cc(OCC(=O)NCCCCCCCCCCCC)c(OCC(=O)NCCCCCCCCCCCC)cc3c3cc(OCC(=O)NCCCCCCCCCCCC)c(OCC(=O)NCCCCCCCCCCCC)cc3c2cc1OCC(=O)NCCCCCCCCCCCC` [Compound 1], the gelation ability result in “Gelation test” (Benzene) is reported as “S”; in “Gelation test” (Carbon tetrachloride), “S”; in the data set “Gelation test” (Chloroform), “S”; in the data set “Gelation test” (Cyclohexane) it was “G”; in the data set “Gelation test” (Diphenyl ether) it was “S”; in the data set “Gelation test” (Ethanol) it was “I”. For the same molecule, the gelation ability entry is on record as “I” in “Gelation test” (Ethyl acetate); “G” in the data set “Gelation test” (Hexane); “P” in “Gelation test” (Hexanol); “G” in the data set “Gelation test” (Octane); “S” in “Gelation test” (Tetrahydrofuran); “S” in “Gelation test” (Toluene). The gelation ability result in the data set “Gelation test” (p-Xylene) is reported as “G”. For the same molecule, the solubility result in data set [1] (hot cyclohexane) was “soluble”.

Turning to `CCCCNC(=O)COc1cc2c3cc(OCC(=O)NCCCC)c(OCC(=O)NCCCC)cc3c3cc(OCC(=O)NCCCC)c(OCC(=O)NCCCC)cc3c2cc1OCC(=O)NCCCC` [Compound 2], the gelation ability result in the data set “Gelation test” (Benzene) was “P”; in “Gelation test” (Carbon tetrachloride), “S”; in the data set “Gelation test” (Chloroform) it was “S”; in “Gelation test” (Cyclohexane) it was “pG”; in “Gelation test” (Diphenyl ether) it was “S”; in “Gelation test” (Ethanol), “I”. Moreover, the gelation ability entry in the data set “Gelation test” (Ethyl acetate) is “I”; in the data set “Gelation test” (Hexane), “I”; in the data set “Gelation test” (Hexanol), “I”; in “Gelation test” (Octane), “I”; in the data set “Gelation test” (Tetrahydrofuran), “P”; in the data set “Gelation test” (Toluene) it was “P”. Besides, in the data set “Gelation test” (p-Xylene), the gelation ability entry is on record as “P”. In data set [1] (hot cyclohexane), the solubility entry was “soluble”.

On to `CCCCCCCCCCCCOc1cc2c3cc(OCCCCCCCCCCCC)c(OCCCCCCCCCCCC)cc3c3cc(OCCCCCCCCCCCC)c(OCCCCCCCCCCCC)cc3c2cc1OCCCCCCCCCCCC` [Compound 3, reference compound], for which the gelation entry in “Gelation test” (solvents not specified) is listed as “no gelation was observed”. Also, the solubility entry in the data set “Gelation test” (solvents not specified) is recorded as “high solubility”; in data set [1] (chloroform), “soluble”; in data set [1] (cyclohexane) it was “soluble”.
